From ChEMBL document CHEMBL4627361, “Decades-old renin inhibitors are still struggling to find a niche in antihypertensive therapy. A fleeting look at the old and the promising new molecules” (Bioorg Med Chem, 2020) come the findings set out here.

A short description of data set [1]: Aqueous solubility of compound in pH 7.4. It is filed as physicochemical.
Data set [2] can be described thus: Octanol/water partition co-efficient, log P of compound at pH 7.4. It is filed as physicochemical.
Data set [3] in a line: Half life in human. It is filed as ADME.
Data set [4] in a line: Protein binding in human plasma. In kind it is ADME, cell-free. The conditions noted are these: read-out: PPB (converted).

In brackets after ≈: the same amount, converted by molar mass.

Compound `COCCCOc1cc(C[C@@H](C[C@H](N)[C@@H](O)C[C@H](C(=O)NCC(C)(C)C(N)=O)C(C)C)C(C)C)ccc1OC` displayed a solubility in data set [1] of 350 mg/mL (≈ 634 mM). For the same compound, the logD in data set [2] was found to be 2.45. Further, the half-life in data set [3] was 24 h. Besides, the fraction unbound in data set [4] is 0.505.
